Laboratory results: USRE48711E1, “Apoptosis signal-regulating kinase inhibitors” (Gilead Sciences, Inc., priority 2009, dated 2021)
Like-named read-outs stand apart in the source and are kept apart here.

Target: ASK1 (Apoptosis Signal-Regulating Kinase 1) (Homo sapiens (Human), UniProt Q99683)
Experiment: ASK1 (Apoptosis Signal-Regulating Kinase 1) TR-FRET Kinase Assay (Biochemical IC50)
[1] = TR-FRET, biotin-MBP substrate, 20 min pre-incubation, ATP added as 300 μM solution

Sequence of ASK1 (Apoptosis Signal-Regulating Kinase 1) (Q99683 649-946): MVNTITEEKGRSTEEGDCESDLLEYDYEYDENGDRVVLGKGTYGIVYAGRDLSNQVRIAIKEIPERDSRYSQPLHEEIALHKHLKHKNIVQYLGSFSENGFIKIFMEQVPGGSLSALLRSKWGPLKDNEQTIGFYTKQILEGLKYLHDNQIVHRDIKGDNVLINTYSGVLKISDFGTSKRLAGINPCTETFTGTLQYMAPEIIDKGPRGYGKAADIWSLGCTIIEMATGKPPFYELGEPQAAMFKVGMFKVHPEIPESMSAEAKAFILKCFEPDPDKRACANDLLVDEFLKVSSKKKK
Experimental: The ability of compounds to inhibit ASK1 kinase activity was determined using a time resolved fluorescence resonance energy transfer [TR-FRET] assay utilizing biotinylated myelin basic protein [biotin-MBP] as the protein substrate. […] The enzyme was allowed to pre-incubate with compound for 20 minutes prior to initiating the kinase reaction with the addition of 5 μL/well 300 μM ATP in buffer (50 mM MOPS, pH 7.0, 5 mM Mg-acetate, 1 mM DTT, 5% DMSO) using the Decrac Fluidics Equator. The kinase reactions were allowed to proceed for 20 minutes at ambient temperature and were subsequently stopped with the addition of 5 μL/well 25 mM EDTA using the Deerac Fluidics Equator. […] The TR-FRET signal was then read on a Perkin. Elmer Envision plate reader after incubating the plates at ambient temperature for 2 hours.

| SMILES | IC50 [1] | IC50 |
| --- | --- | --- |
| Cn1cnnc1-c1cccc(NC(=O)c2cncc(-c3ccccc3)c2)c1 [Example 2, N-(3-(4-methyl-4H-1,2,4-triazol-3-yl)phenyl)-5-phenylnicotinamide] | 5590 nM |  |
| Cn1cnnc1-c1cccc(NC(=O)c2cc(-c3ccccc3)ccn2)c1 [Example 4, N-(3-(4-methyl-4H-1,2,4-triazol-3-yl)phenyl)-4-phenylpicolinamide] | 701 nM |  |
| Cn1cnnc1-c1cccc(NC(=O)c2cncc(-c3cccnc3)c2)c1 [Example 8, N-(3-(4-methyl-4H-1,2,4-triazol-3-yl)phenyl)-3,3′-bipyridine-5-carboxamide] | 220 nM |  |
| Cn1cnnc1-c1cccc(NC(=O)c2cc(-c3cccnc3)ccn2)c1 [Example 9, N-(3-(4-methyl-4H-1,2,4-triazol-3-yl)phenyl)-3,4′-bipyridine-2′-carboxamide] | 42 nM |  |
| COc1cncc(-c2ccnc(C(=O)Nc3cccc(-c4nncn4C)c3)c2)c1 [Example 11, 5-methoxy-N-(3-(4-methyl-4H-1,2,4-triazol-3-yl)phenyl)-3,4′-bipyridine-2′-carboxamide] | 40 nM |  |
| Cn1cnnc1-c1cccc(NC(=O)c2cc(-c3cnc4ccccn34)ccn2)c1 [Example 13, 4-(imidazo[1,2-a]pyridin-3-yl)-N-(3-(4-methyl-4H-1,2,4-triazol-3-yl)phenyl)picolinamide] | 44 nM |  |
| NC(=O)CCn1cnnc1-c1cccc(NC(=O)c2cc(-c3cccnc3)ccn2)c1 [Example 16, N-(3-(4-(3-amino-3-oxopropyl)-4H-1,2,4-triazol-3-yl)phenyl)-3,4′-bipyridine-2′-carboxamide] | 114 nM |  |
| Cn1cncc1-c1ccnc(C(=O)Nc2cccc(-c3nncn3C)c2)c1 [Example 18, 4-(1-methyl-1H-imidazol-5-yl)-N-(3-(4-methyl-4H-1,2,4-triazol-3-yl)phenyl)picolinamide] | 39 nM |  |
| C[C@H](CO)n1cnnc1-c1cccc(NC(=O)c2cc(-c3cccnc3)ccn2)c1 [Example 19, (R)-N-(3-(4-(1-hydroxypropan-2-yl)-4H-1,2,4-triazol-3-yl)phenyl)-3,4′-bipyridine-2′-carboxamide] | 9 nM |  |
| C[C@@H](CO)n1cnnc1-c1cccc(NC(=O)c2cc(-c3cccnc3)ccn2)c1 [Example 20, (S)-N-(3-(4-(1-hydroxypropan-2-yl)-4H-1,2,4-triazol-3-yl)phenyl)-3,4′-bipyridine-2′-carboxamide] | 39 nM |  |
| COC(=O)Nc1ccc(-c2ccnc(C(=O)Nc3cccc(-c4nncn4C4CC4)c3)c2)cn1 [Example 23, methyl 2′-(3-(4-cyclopropyl-4H-1,2,4-triazol-3-yl)phenylcarbamoyl)-3,4′-bipyridin-6-ylcarbamate] | 167 nM |  |
| O=C(Nc1cccc(-c2nncn2C2CC2)c1)c1cc(-n2ccnc2)ccn1 [Example 27, N-(3-(4-cyclopropyl-4H-1,2,4-triazol-3-yl)phenyl)-4-(1H-imidazol-1-yl)picolinamide] | 11 nM |  |
| O=C(Nc1cccc(-c2nncn2C2CC2)c1)c1cc(-n2cncn2)ccn1 [Example 28, N-(3-(4-cyclopropyl-4H-1,2,4-triazol-3-yl)phenyl)-4-(1H-1,2,4-triazol-1-yl)picolinamide] | 110 nM |  |
| CN1CCN(c2ccnc(C(=O)Nc3cccc(-c4nncn4C)c3)c2)CC1 [Example 29, N-(3-(4-methyl-4H-1,2,4-triazol-3-yl)phenyl)-4-(4-methylpiperazin-1-yl)picolinamide] | 443 nM |  |
| Cn1cnnc1-c1cccc(NC(=O)c2cc(N3CCOCC3)ccn2)c1 [Example 30, N-(3-(4-methyl-4H-1,2,4-triazol-3-yl)phenyl)-4-morpholinopicolinamide] | 335 nM |  |
| Cn1cnnc1-c1cccc(NC(=O)c2cc(N3CCNC(=O)C3)ccn2)c1 [Example 32, N-(3-(4-methyl-4H-1,2,4-triazol-3-yl)phenyl)-4-(3-oxopiperazin-1-yl)picolinamide] | 569 nM |  |
| Cn1cnnc1-c1cccc(NC(=O)c2cc(N3CCC(N)C3)ccn2)c1 (stereo not shown) [Example 33, 4-(3-aminopyrrolidin-1-yl)-N-(3-(4-methyl-4H-1,2,4-triazol-3-yl)phenyl)picolinamide] | 3480 nM |  |
| C[C@@H](O)Cn1cnnc1-c1cccc(NC(=O)c2cc(-c3cccnc3)ccn2)c1 [Example 34, (R)-N-(3-(4-(2-hydroxypropyl)-4H-1,2,4-triazol-3-yl)phenyl)-3,4′-bipyridine-2′-carboxamide] |  | 195 nM |
| C[C@H](O)Cn1cnnc1-c1cccc(NC(=O)c2cc(-c3cccnc3)ccn2)c1 [Example 35, (S)-N-(3-(4-(2-hydroxypropyl)-4H-1,2,4-triazol-3-yl)phenyl)-3,4′-bipyridine-2′-carboxamide] | 87 nM |  |
| O=C(Nc1cccc(-c2nncn2C2CC2)c1)c1cc(-n2cnc3ccccc32)ccn1 [Example 37, 4-(1H-benzo[d]imidazol-1-yl)-N-(3-(4-cyclopropyl-4H-1,2,4-triazol-3-yl)phenyl)picolinamide] | 8 nM |  |
| O=C(Nc1cccc(-c2nncn2C2CC2)c1)c1cc(-n2cnc(-c3ccccc3)c2)ccn1 [Example 38, N-(3-(4-cyclopropyl-4H-1,2,4-triazol-3-yl)phenyl)-4-(4-phenyl-1H-imidazol-1-yl)picolinamide] | 17 nM |  |
| Cc1nccn1-c1ccnc(C(=O)Nc2cccc(-c3nncn3C3CC3)c2)c1 [Example 41, N-(3-(4-cyclopropyl-4H-1,2,4-triazol-3-yl)phenyl)-4-(2-methyl-1H-imidazol-1-yl)picolinamide] | 48 nM |  |
| Cc1cn(-c2ccnc(C(=O)Nc3cccc(-c4nncn4C4CC4)c3)c2)cn1 [Example 42, N-(3-(4-cyclopropyl-4H-1,2,4-triazol-3-yl)phenyl)-4-(4-methyl-1H-imidazol-1-yl)picolinamide] | 11 nM |  |
| Cc1ncn(-c2ccnc(C(=O)Nc3cccc(-c4nncn4C4CC4)c3)c2)c1C [Example 43, N-(3-(4-cyclopropyl-4H-1,2,4-triazol-3-yl)phenyl)-4-(4,5-dimethyl-1H-imidazol-1-yl)picolinamide] | 8 nM |  |
| O=C(Nc1cccc(-c2nncn2C2CC2)c1)c1cc(-n2cnc(C(F)(F)F)c2)ccn1 [Example 44, N-(3-(4-cyclopropyl-4H-1,2,4-triazol-3-yl)phenyl)-4-(4-(trifluoromethyl)-1H-imidazol-1-yl)picolinamide] | 27 nM |  |
| Cc1cc(-c2cccnc2)cc(C(=O)Nc2cccc(-c3nncn3C)c2)n1 [Example 46, 6′-methyl-N-(3-(4-methyl-4H-1,2,4-triazol-3-yl)phenyl)-3,4′-bipyridine-2′-carboxamide] | 212 nM |  |
| O=C(Nc1cccc(-c2nncn2C2CC2)c1)c1cc(-c2ccc(N3CCCC3)nc2)ccn1 [Example 47, N-(3-(4-cyclopropyl-4H-1,2,4-triazol-3-yl)phenyl)-6-(pyrrolidin-1-yl)-3,4′-bipyridine-2′-carboxamide] | 32 nM |  |

Next, values leading:

| IC50 [1] | IC50 | SMILES |
| --- | --- | --- |
| 279 nM |  | O=C(Nc1cccc(-c2nncn2C2CC2)c1)c1cc(-c2ccccc2)ccn1 [Example 14, N-(3-(4-cyclopropyl-4H-1,2,4-triazol-3-yl)phenyl)-4-phenylpicolinamide] |
| 11 nM |  | O=C(Nc1cccc(-c2nncn2C2CC2)c1)c1cc(-c2cccnc2)ccn1 [Example 15, N-(3-(4-cyclopropyl-4H-1,2,4-triazol-3-yl)phenyl)-3,4′-bipyridine-2′-carboxamide] |
| 12 nM |  | COc1ccc(-c2ccnc(C(=O)Nc3cccc(-c4nncn4C4CC4)c3)c2)cn1 [Example 21, N-(3-(4-cyclopropyl-4H-1,2,4-triazol-3-yl)phenyl)-6-methoxy-3,4′-bipyridine-2′-carboxamide] |
| 9 nM |  | Nc1ccc(-c2ccnc(C(=O)Nc3cccc(-c4nncn4C4CC4)c3)c2)cn1 [Example 22, 6-amino-N-(3-(4-cyclopropyl-4H-1,2,4-triazol-3-yl)phenyl)-3,4′-bipyridine-2′-carboxamide] |
| 21 nM |  | O=C(Nc1cccc(-c2nncn2C2CC2)c1)c1cc(-c2cncnc2)ccn1 [Example 24, N-(3-(4-cyclopropyl-4H-1,2,4-triazol-3-yl)phenyl)-4-(pyrimidin-5-yl)picolinamide] |
| 13 nM |  | Nc1ncc(-c2ccnc(C(=O)Nc3cccc(-c4nncn4C4CC4)c3)c2)cn1 [Example 25, 4-(2-aminopyrimidin-5-yl)-N-(3-(4-cyclopropyl-4H-1,2,4-triazol-3-yl)phenyl)picolinamide] |
| 1970 nM |  | O=C(Nc1cccc(-c2nncn2C2CCOCC2)c1)c1cc(-c2cccnc2)ccn1 [Example 26, N-(3-(4-(tetrahydro-2H-pyran-4-yl)-4H-1,2,4-triazol-3-yl)phenyl)-3,4′-bipyridine-2′-carboxamide] |
| 63 nM |  | O=C(Nc1cccc(-c2nncn2C2CC2)c1)c1cc(-c2ccc(O)nc2)ccn1 [Example 31, N-(3-(4-cyclopropyl-4H-1,2,4-triazol-3-yl)phenyl)-6-hydroxy-3,4′-bipyridine-2′-carboxamide] |
| 18 nM |  | Cn1cncc1-c1ccnc(C(=O)Nc2cccc(-c3nncn3C3CC3)c2)c1 [Example 36, N-(3-(4-cyclopropyl-4H-1,2,4-triazol-3-yl)phenyl)-4-(1-methyl-1H-imidazol-5-yl)picolinamide] |
| 63 nM |  | O=C(Nc1cccc(-c2nncn2C2CCC2)c1)c1cc(-c2cccnc2)ccn1 [Example 39, N-(3-(4-cyclobutyl-4H-1,2,4-triazol-3-yl)phenyl)-3,4′-bipyridine-2′-carboxamide] |
| 75 nM |  | O=C(Nc1cccc(-c2nncn2C2CCCC2)c1)c1cc(-c2cccnc2)ccn1 [Example 40, N-(3-(4-cyclopentyl-4H-1,2,4-triazol-3-yl)phenyl)-3,4′-bipyridine-2′-carboxamide] |
| 9 nM |  | COc1ncc(-c2ccnc(C(=O)Nc3cccc(-c4nncn4C4CC4)c3)c2)cn1 [Example 45, N-(3-(4-cyclopropyl-4H-1,2,4-triazol-3-yl)phenyl)-4-(2-methoxypyrimidin-5-yl)picolinamide] |
| 37 nM |  | Cc1cc(-c2ccnc(C(=O)Nc3cccc(-c4nncn4C4CC4)c3)c2)cnc1F [Example 48, N-(3-(4-cyclopropyl-4H-1,2,4-triazol-3-yl)phenyl)-6-fluoro-5-methyl-3,4′-bipyridine-2′-carboxamide] |
